In PubChem BioAssay (NCI):
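Assay format: 96-well plates, 48-hour exposure. GI50 = concentration required for 50% inhibition of growth. TGI is the concentration that stops growth completely.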

Tested on: MDA-N
Assay: DTP human tumour cell line panel, 48 h

| SMILES | TGI | GI50 |
| --- | --- | --- |
| Cn1c2ccccc2c(=O)c2ccc(Cl)cc21 | > 10 µM |  |
| ClCC[N+]12CC[N+](CCCl)(CC1)C2 | > 100 µM |  |
| C/C(N=NC(=S)N(C)C)=C1\C=CC=CN1O | > 100 µM |  |
| C=C1CCC(CC[C@@H]2CC[C@]3(OC2)O[C@@]2(O)CC[C@]3(C)OC2(C)C)C(C)(C)[C@H]1C/C=C1/C(=O)OC[C@@H]1O (stereo partly specified) | 4.36 µM |  |
| C[C@]12CC[C@@H]3c4cc(OCC(F)(F)F)c(O)cc4/C(=N/O)C[C@H]3[C@@H]1CC[C@@H]2O | 1.06 µM |  |
| Clc1ccc(C=Nc2ccc3c(c2)Cc2ccccc2-3)c(Cl)c1 | > 100 µM |  |
| COc1ccc(/C=C/c2cc(OC)cc(=O)o2)cc1 | > 100 µM |  |
| COc1c(CCl)cc(-c2cc(=O)c3ccccc3s2)cc1CCl | > 100 µM |  |
| O=C1CC2c3ccccc3CCC2c2ccccc21 (stereo unspecified) | 21.4 µM |  |
| Nc1nc(F)nc2c1ncn2C1OC(CO)C(O)C1O (stereo unspecified) | > 100 µM |  |
| CCn1c(-c2ccc(OC(C)=O)cc2)c(C)c2cc(OC(C)=O)ccc21 | 77.9 µM |  |
| COc1cc(NC(C)CCCN)c2nccc(C)c2c1 (stereo unspecified) | 33.7 µM |  |
| Br[C](Br)(Br)[Hg][c]1ccccc1 | 38.7 µM | 17.6 µM |
| COc1ccc(CC2NCCc3cc(OC)c(OC)cc32)cc1Br (stereo unspecified) | > 100 µM |  |

Tested on: DMS 273 small cell lung
Assay: DTP human tumour cell line panel, 48 h

| SMILES | TGI | GI50 |
| --- | --- | --- |
| O=C1[C@@H]2C(c3ccccc3F)=NO[C@@H]2C(=O)N1c1ccc(Cc2ccc(N3C(=O)[C@H]4C(c5ccccc5F)=NO[C@H]4C3=O)cc2)cc1 | > 100 µM |  |
| C=CCc1ccc(Oc2cc(CC=C)c3c(c2O)O[C@@H](CO)[C@H]3c2ccc(O)c(-c3cc(CC=C)ccc3O)c2)cc1 | > 100 µM |  |
| Clc1ccc2c(c1)-c1c3c(nn1-c1ccccc1)-c1ccccc1SC3O2 (stereo unspecified) | > 100 µM |  |
| CN(C)c1cc[c]([Sn]([c]2ccc(N(C)C)cc2)([c]2ccc(N(C)C)cc2)[c]2ccc(N(C)C)cc2)cc1 | 16.4 µM | 4.76 µM |
| C=C1C(=O)OC2/C=C(\COC(C)=O)CCC(OC(C)=O)C3=CC(OC3=O)C12 (stereo unspecified) | 21.7 µM |  |
| C/C(N=NC(=S)N(C)C)=C1\C=CC=CN1O | > 100 µM |  |
| O=C1CCC(O)=C1N=Nc1ccccc1 | > 100 µM |  |
| CCN(CC)c1ccc(N=Nc2ccc(-c3nc4ccc[n+](C)c4s3)cc2)cc1 | 13.5 µM |  |
| NC(=O)NCc1c(C(N)=O)ncn1Cc1ccccc1 | > 100 µM |  |
| O=C1CSC(/C(=N/Nc2ccccc2)c2nc3ccccc3[nH]2)=N1 | 47.3 µM |  |
| O=C(c1ccccc1)C1OC12C(=O)Nc1ccccc12 (stereo unspecified) | > 100 µM |  |
| COc1ccc2nc(NC(=O)C(=O)C(C#N)c3ccc([N+](=O)[O-])cc3)sc2c1 (stereo unspecified) | > 100 µM |  |
| O=C(O)[C@H](NS(=O)(=O)c1ccc([N+](=O)[O-])cc1)c1ccccc1 | > 100 µM |  |
| S=C1OC2CCCC[C@H]2O1 (stereo partly specified) | > 100 µM |  |
| O=C1/C(=C/c2cccc([N+](=O)[O-])c2)COc2ccc(Br)cc21 | > 100 µM |  |
| CSC(C1c2ccccc2N(c2ccc(C)cc2)c2[nH]c(=O)n(C)c(=O)c21)S(=O)(=O)c1ccc(C)cc1 (stereo unspecified) | > 100 µM |  |
| N#Cc1cccnc1Cl | > 100 µM |  |
| CCCCCCCCCCCC(=O)OCC1OC(OC)C(NC(=O)N(CCCl)N=O)C(O)C1O (stereo unspecified) | 30.6 µM |  |
| C=CC/C=C/C/C=C/CCCCCCCc1cccc(O)c1C(=O)O | > 100 µM |  |
| COc1ccc(OC)c2c(C(=O)O)c(Cc3ccccc3)ccc12 | > 100 µM |  |
| Cc1c(C(=O)/C=C/c2ccccc2)[n+](=O)c2ccccc2n1[O-] | 30.1 µM |  |
| N#CC1CC2(C1)OCCS2 (stereo unspecified) | > 100 µM |  |
| C1C[OH+]CC[OH+]CC[OH+]CC[OH+]CC[OH+]1.[Cl-].[V] | > 100 µM | 53 µM |
| COc1ccc(CC2NCCc3cc(OC)c(OC)cc32)cc1Br (stereo unspecified) | 57.5 µM |  |
| c1ccc(C2Nc3ccccc3C3OCCCC23)cc1 (stereo unspecified) | 97.1 µM |  |

Tested on: SNB-78 CNS
Assay: DTP human tumour cell line panel, 48 h

| SMILES | TGI | GI50 |
| --- | --- | --- |
| O=C1[C@@H]2C(c3ccccc3F)=NO[C@@H]2C(=O)N1c1ccc(Cc2ccc(N3C(=O)[C@H]4C(c5ccccc5F)=NO[C@H]4C3=O)cc2)cc1 | > 100 µM |  |
| C=CCc1ccc(Oc2cc(CC=C)c3c(c2O)O[C@@H](CO)[C@H]3c2ccc(O)c(-c3cc(CC=C)ccc3O)c2)cc1 | > 100 µM |  |
| O=C(NCO)NCOCn1c(=O)n(CO)c(=O)n(CO)c1=O | > 73.9 µM |  |
| Clc1ccc2c(c1)-c1c3c(nn1-c1ccccc1)-c1ccccc1SC3O2 (stereo unspecified) | > 100 µM |  |
| O=C1OC2CCCC[C@@H]2C2C[C@]34CCCCC3[C@@H](C(=O)O4)C12 (stereo partly specified) | > 100 µM |  |
| CN(C)c1cc[c]([Sn]([c]2ccc(N(C)C)cc2)([c]2ccc(N(C)C)cc2)[c]2ccc(N(C)C)cc2)cc1 | 11.5 µM | 3.82 µM |
| C=C1C(=O)OC2/C=C(\COC(C)=O)CCC(OC(C)=O)C3=CC(OC3=O)C12 (stereo unspecified) | 9.55 µM |  |
| C/C(N=NC(=S)N(C)C)=C1\C=CC=CN1O | > 100 µM |  |
| O=C1CCC(O)=C1N=Nc1ccccc1 | > 100 µM |  |
| CCN(CC)c1ccc(N=Nc2ccc(-c3nc4ccc[n+](C)c4s3)cc2)cc1 | 31.6 µM |  |
| NC(=O)NCc1c(C(N)=O)ncn1Cc1ccccc1 | > 100 µM |  |
| O=C1CSC(/C(=N/Nc2ccccc2)c2nc3ccccc3[nH]2)=N1 | > 100 µM |  |
| O=C(c1ccccc1)C1OC12C(=O)Nc1ccccc12 (stereo unspecified) | > 100 µM |  |
| COc1ccc2nc(NC(=O)C(=O)C(C#N)c3ccc([N+](=O)[O-])cc3)sc2c1 (stereo unspecified) | > 100 µM |  |
| O=C(O)[C@H](NS(=O)(=O)c1ccc([N+](=O)[O-])cc1)c1ccccc1 | > 100 µM |  |
| S=C1OC2CCCC[C@H]2O1 (stereo partly specified) | > 100 µM |  |
| O=C1/C(=C/c2cccc([N+](=O)[O-])c2)COc2ccc(Br)cc21 | > 100 µM |  |
| CSC(C1c2ccccc2N(c2ccc(C)cc2)c2[nH]c(=O)n(C)c(=O)c21)S(=O)(=O)c1ccc(C)cc1 (stereo unspecified) | > 100 µM |  |
| CCOC(=O)NC(=O)c1cn(CCCOC(=O)CCCCCCCCCCC(=O)OCCCn2cc(C(=O)NC(=O)OCC)c(=O)[nH]c2=O)c(=O)[nH]c1=O | > 100 µM |  |
| COc1cc(/C=C(\C#N)c2ccccc2)cc(OC)c1 | > 100 µM |  |
| N#Cc1cccnc1Cl | > 100 µM |  |
| C=CC/C=C/C/C=C/CCCCCCCc1cccc(O)c1C(=O)O | > 100 µM |  |
| O=C(Nc1c(Cl)cc([N+](=O)[O-])cc1Cl)C(=O)C(C1OC(=O)c2ccccc21)[N+](=O)[O-] (stereo unspecified) | > 100 µM |  |
